Reference: patent publication US20260335299A1, “SUBSTITUTED OXOISOINDOLINYL PIPERIDINE-2,6-DIONE COMPOUND AS ANTICANCER AGENT” (BRISTOL-MYERS SQUIBB COMPANY, priority 2023, published 2026)

How the values were obtained:
Assay type in all cases: cell-based
IKZF1 Ikaros [1] = target: T1, IKZF1 Ikaros (Homo sapiens, UniProt Q13422+Q96SW2); experiment: Human CD8+ T Cell Reprogramming (Degradation) Assay (Ikaros); parameters: Cryopreserved healthy donor human peripheral blood mononuclear cells (PBMC); endogenous in cells; host or cells: CD8+ T cells within healthy donor human PBMC; details: CD8+ T cells, human PBMC, 24 h
Procedure: Cryopreserved healthy donor human peripheral blood mononuclear cells (PBMC) from healthy donors were thawed and seeded at 500,000 cells/well of 96-well round bottom plates in RPMI 1640 media (Gibco) supplemented with 10% FBS, Pen/Strep (Gibco), MEM-NEAA (Gibco), and sodium pyruvate (Gibco). Cells were treated with titrated doses of compound for 24 hours at 37° C., 5% CO2 before analyzing by flow cytometry.
For flow cytometry staining, cells were washed twice with flow cytometry staining buffer (Thermo Fisher) and incubated in Human Tru-stain Fc block (Biolegend) for 10 minutes before adding eFluor780 viability dye (Thermo Fisher) and surface marker antibody cocktail containing LD-eFluor780, CD3-BUV-395, CD4-BUV805, CD8-FITC, and CD25-BV605 for 30 minutes at 4° C. Cells were then fixed and permeabilized by incubation with permeabilization buffer (eBioscience FoxP3 buffer set 00-5523-00) for 30 minutes at 4° C. as per the kit manufacturer's instructions. Cells were washed twice with the Perm/Wash buffer supplied in the kit as per the manufacturer's instructions and incubated overnight at 4° C. with an intracellular antibody cocktail comprised of antibodies specific for the transcription factors (i.e., Foxp3-BV421, HELIOS-PE-Cy7, EOS-PE, IKAROS-PECF594, AIOLOS-AF647). Cells were washed twice with Perm/Wash buffer and resuspended in flow cytometry staining buffer (Thermo Fisher) prior to acquisition. Sample acquisition and analysis was performed using a BD LSRFortessa (BD Biosciences) flow cytometer. Single-stain controls for each fluorochrome were prepared using UltraComp eBead Compensation Beads (Thermo Fisher). Data were analyzed using FlowJo version 10 and GraphPad Prism Software.
(§1) Table D-1 lists the maximum observed degradation of the IKZF1 protein and IKZF3 protein as measured in the Human CD8^+ T Cell Reprogramming assay. The results in Table D-1 were rounded to two digits. In the Human CD8^+ T Cell Reprogramming assay, a value of 100% indicated no detectable protein remaining or complete degradation of the protein; and a value of 0% indicated no detectable degradation of the protein by the test compound.

IKZF1 Ikaros [2] = target: T1, IKZF1 Ikaros; experiment: Human Regulatory T Cell Degradation Assay (Ikaros); details: human regulatory T cells, 20 h
Procedure: Cryopreserved human regulatory T cells were thawed in RPMI+10% FBS+20 ng/mL IL-2. After being spun at 1200 rpm for 5 mins, the cells were resuspended in RPMI+10% FBS+20 ng/ml and rested at 37° C. with 5% CO2 for 3 hours. The cells were then plated at 40,000 cells/well in 40 μL RPMI+10% FBS+20 ng/mL human IL-2 in a 384 well cell culture plate prior to using acoustic dispensing technology (ECHO 555) for adding compounds of interest. Cell cultures were incubated for 20 hours at 37° C. and 5% CO2. In order to facilitate analysis, cell cultures were spun down at 1200 rpm for 5 minutes and the supernatant was discarded using an EL406 plate washer. After washing three times with […] PBS, cell pellets were resuspended in 50 μL of […] viability staining solution (Life Technologies, Cat #L34975) and incubated for 30 minutes on ice protected from light. Cells were washed three times with 70 μL PBS+0.5% BSA using an EL406 plate washer. After shaking the plate to dislodge the cell pellet, cells were resuspended in 50 μL of Fixation Buffer (eBioScience FoxP3 buffer set 00-5523-00) for 60 minutes at room temperature. After centrifuging and discarding the supernatant, cells were permeabilized with 50 μL of permeabilization buffer (eBioScience FoxP3 buffer set 00-5523-00) for 10 minutes at room temperature. Following permeabilization, cells were spun down and the supernatant was replaced with 30 μL fluorescently labelled antibodies against the intracellular targets Helios (Helios-APC [BioLegend, Cat #137222, 1:50])]), Aiolos, and Ikaros 1× Permeabilization buffer and staining reactions were incubated for 1 hour at room temperature; protected from light. Subsequently, […] Permeabilization buffer was added prior to centrifuging the cells and discarding the supernatant. Stained cells were resuspended in 30 μL of flow cytometry staining buffer (PBS+0.5% BSA) and analyzed using an Intellicyt Ique Plus flow cytometer.
as §1, with “B-1” for “D-1”, “IKZF2” for “IKZF3”, “Regulatory” for “CD8^+”, “Degradation” for “Reprogramming”

IKZF2 Helios = IKZF2 Helios (Homo sapiens, UniProt Q96SW2+Q9UKS7); experiment: Human Regulatory T Cell Degradation Assay (Helios); parameters: Human CD4+ T cells were isolated from fresh healthy leukopaks; endogenous in cells; host or cells: FACS-sorted primary human regulatory T cells from healthy leukopaks; details: human regulatory T cells, 20 h
Procedure: Cryopreserved human regulatory T cells were thawed in RPMI+10% FBS+20 ng/mL IL-2. After being spun at 1200 rpm for 5 mins, the cells were resuspended in RPMI+10% FBS+20 ng/ml and rested at 37° C. with 5% CO2 for 3 hours. The cells were then plated at 40,000 cells/well in 40 μL RPMI+10% FBS+20 ng/mL human IL-2 in a 384 well cell culture plate prior to using acoustic dispensing technology (ECHO 555) for adding compounds of interest. Cell cultures were incubated for 20 hours at 37° C. and 5% CO2. In order to facilitate analysis, cell cultures were spun down at 1200 rpm for 5 minutes and the supernatant was discarded using an EL406 plate washer. After washing three times with […] PBS, cell pellets were resuspended in 50 μL of […] viability staining solution (Life Technologies, Cat #L34975) and incubated for 30 minutes on ice protected from light. Cells were washed three times with 70 μL PBS+0.5% BSA using an EL406 plate washer. […] Stained cells were resuspended in 30 μL of flow cytometry staining buffer (PBS+0.5% BSA) and analyzed using an Intellicyt Ique Plus flow cytometer.
Table B-1 lists the maximum observed degradation of the IKZF1 protein and IKZF2 protein as measured in the Human Regulatory T Cell Degradation assay. […]

[3] = concentration reducing protein level by 50% compared to DMSO alone

T1 sequence (Q13422 whole entry): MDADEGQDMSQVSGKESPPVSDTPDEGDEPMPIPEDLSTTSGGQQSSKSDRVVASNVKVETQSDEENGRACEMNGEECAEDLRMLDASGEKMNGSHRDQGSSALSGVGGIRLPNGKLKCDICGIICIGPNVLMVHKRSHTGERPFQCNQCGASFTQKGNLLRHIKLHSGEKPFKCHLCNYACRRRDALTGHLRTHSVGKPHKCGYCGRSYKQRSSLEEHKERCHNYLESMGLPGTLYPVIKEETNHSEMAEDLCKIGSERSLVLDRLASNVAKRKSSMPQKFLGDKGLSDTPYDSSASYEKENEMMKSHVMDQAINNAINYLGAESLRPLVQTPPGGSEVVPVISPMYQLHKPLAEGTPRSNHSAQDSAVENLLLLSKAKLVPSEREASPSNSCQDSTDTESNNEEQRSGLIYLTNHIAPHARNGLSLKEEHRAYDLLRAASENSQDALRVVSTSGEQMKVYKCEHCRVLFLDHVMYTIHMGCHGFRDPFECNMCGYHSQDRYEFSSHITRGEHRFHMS
T1 sequence (Q96SW2 whole entry): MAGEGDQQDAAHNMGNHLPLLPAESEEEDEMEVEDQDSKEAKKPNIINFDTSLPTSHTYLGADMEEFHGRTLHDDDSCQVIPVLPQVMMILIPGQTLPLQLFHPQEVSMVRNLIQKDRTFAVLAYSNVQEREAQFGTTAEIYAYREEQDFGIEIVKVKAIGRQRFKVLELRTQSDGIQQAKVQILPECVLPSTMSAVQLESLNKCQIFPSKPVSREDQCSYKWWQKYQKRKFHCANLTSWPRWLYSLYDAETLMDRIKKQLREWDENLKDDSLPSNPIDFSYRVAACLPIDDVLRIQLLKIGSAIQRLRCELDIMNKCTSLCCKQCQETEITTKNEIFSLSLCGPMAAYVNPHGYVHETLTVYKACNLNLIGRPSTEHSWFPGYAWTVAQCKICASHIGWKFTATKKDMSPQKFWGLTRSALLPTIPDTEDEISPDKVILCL
T1 sequence (Q16531 whole entry partner): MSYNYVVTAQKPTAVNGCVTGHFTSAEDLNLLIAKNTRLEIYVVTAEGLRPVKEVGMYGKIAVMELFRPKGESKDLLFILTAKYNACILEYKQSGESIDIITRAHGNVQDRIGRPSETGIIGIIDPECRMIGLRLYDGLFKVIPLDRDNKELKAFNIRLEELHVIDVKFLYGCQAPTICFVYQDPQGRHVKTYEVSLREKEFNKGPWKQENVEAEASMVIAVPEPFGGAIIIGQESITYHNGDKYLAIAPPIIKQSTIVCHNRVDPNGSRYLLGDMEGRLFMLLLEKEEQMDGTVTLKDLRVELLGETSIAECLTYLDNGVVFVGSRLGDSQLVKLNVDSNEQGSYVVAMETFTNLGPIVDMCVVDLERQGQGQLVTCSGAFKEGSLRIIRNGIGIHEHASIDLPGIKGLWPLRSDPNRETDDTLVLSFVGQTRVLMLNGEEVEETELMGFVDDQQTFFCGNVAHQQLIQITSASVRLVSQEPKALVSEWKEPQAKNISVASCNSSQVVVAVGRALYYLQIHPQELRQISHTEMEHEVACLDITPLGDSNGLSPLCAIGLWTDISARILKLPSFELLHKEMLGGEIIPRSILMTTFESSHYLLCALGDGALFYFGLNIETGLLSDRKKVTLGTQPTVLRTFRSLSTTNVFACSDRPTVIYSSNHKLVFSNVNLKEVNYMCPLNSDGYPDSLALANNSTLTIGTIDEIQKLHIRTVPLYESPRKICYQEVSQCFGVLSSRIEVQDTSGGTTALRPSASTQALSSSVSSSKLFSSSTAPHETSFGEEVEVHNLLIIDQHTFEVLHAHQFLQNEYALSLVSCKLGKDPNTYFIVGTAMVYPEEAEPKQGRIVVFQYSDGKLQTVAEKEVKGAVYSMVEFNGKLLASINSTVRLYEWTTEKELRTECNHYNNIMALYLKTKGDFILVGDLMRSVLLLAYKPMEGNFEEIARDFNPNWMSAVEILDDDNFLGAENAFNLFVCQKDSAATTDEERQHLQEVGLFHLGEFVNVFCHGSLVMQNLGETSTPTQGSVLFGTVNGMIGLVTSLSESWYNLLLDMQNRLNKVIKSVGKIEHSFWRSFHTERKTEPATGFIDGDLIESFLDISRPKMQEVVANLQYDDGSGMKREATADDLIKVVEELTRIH
Chain of IKZF2 Helios (Q9UKS7 whole entry): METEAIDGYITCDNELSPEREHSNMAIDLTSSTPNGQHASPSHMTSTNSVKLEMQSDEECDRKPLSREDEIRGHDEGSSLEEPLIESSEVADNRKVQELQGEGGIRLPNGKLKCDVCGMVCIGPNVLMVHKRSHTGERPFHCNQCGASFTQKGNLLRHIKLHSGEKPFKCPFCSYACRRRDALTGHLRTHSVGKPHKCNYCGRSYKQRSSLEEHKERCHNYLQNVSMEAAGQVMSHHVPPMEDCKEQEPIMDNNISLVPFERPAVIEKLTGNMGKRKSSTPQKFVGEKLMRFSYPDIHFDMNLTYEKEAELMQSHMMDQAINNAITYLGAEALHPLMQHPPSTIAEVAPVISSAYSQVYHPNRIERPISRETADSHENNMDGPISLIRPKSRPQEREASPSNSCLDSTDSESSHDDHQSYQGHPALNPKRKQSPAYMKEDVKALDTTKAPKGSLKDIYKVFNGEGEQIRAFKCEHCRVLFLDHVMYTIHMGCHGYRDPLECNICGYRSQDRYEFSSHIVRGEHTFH
Chain of IKZF2 Helios (Q96SW2 whole entry): as the sequence (Q96SW2 whole entry) above
Chain of IKZF2 Helios (Q16531 whole entry partner): as the sequence (Q16531 whole entry partner) above

DC50 (IKZF1 Ikaros [1]; [3]): 35 to 44 nM
Dmax (IKZF1 Ikaros [1]; read-out: IKZF1 Ikaros Maximum Observed Degradation): 86%
Dmax (IKZF1 Ikaros [2]; Regulatory T cell, read-out: IKZF1 Ikaros max % deg. observed): 62%
DC50 (IKZF1 Ikaros [2]; [3]): 194 nM
Dmax (IKZF2 Helios; Regulatory T cell, read-out: IKZF2 Helios max % deg. observed): 96%
DC50 (IKZF2 Helios; [3]): 0.1 nM
SMILES: Nc1nc(-c2ccc3c(c2F)CN(C2CCC(=O)NC2=O)C3=O)ccc1CN1CC(C2CCC(F)(F)CC2)C1 (stereo not drawn) [Example 1, 3-(5-(6-Amino-5-((3-(4,4-difluorocyclohexyl)azetidin-1-yl)methyl)pyridin-2-yl)-4-fluoro-1-oxoisoindolin-2-yl) piperidine-2,6-dione]
